Experimental data as given in publication PMC10962703 (bioRxiv, 2024).
Where “and” joins values, the source holds several entries; their conditions need not be identical. Equal values may be shown once. Entries after “also recorded” stand apart in the source; their conditions may differ.

Assays:
INS-1E cells = assay: Glucose-stimulated insulin secretion; format: cell-based, rat
human D2R [1] = target: T1, human D2R (Homo sapiens, UniProt P14416); assay: cell-based; format: cell-based; conditions: for Emax: read-out: D2R mitogenesis Emax
Target sequence in this assay (P14416 whole entry): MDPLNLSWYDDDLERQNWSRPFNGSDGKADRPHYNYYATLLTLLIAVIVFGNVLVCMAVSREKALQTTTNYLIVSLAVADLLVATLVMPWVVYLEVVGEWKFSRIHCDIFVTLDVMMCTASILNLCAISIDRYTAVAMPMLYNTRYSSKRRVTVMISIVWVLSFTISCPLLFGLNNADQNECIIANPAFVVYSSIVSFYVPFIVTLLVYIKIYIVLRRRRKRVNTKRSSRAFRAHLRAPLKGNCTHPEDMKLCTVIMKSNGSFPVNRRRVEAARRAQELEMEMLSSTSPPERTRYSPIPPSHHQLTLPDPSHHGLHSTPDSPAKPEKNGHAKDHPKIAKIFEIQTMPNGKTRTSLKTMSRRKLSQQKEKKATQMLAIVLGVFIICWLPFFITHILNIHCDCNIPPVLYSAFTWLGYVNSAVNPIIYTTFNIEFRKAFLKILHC

human D3R [2] = target: T2, human D3R (Homo sapiens, UniProt P35462); assay: D3R-mediated mitogenesis; format: cell-based; conditions: for Emax: read-out: D3R mitogenesis Emax
[3] = In vivo pharmacokinetics, plasma and brain levels; parameters: species or system CD1 mice; conditions: for Brain Conc.: mean ± SEM, n=3; for Kp at 0.25 h / Kp at 1 h / concentration at 15 min / concentration at 60 min: male, CD1, mouse, 10 mg/kg; for Kp at 0.25 h / Kp at 1 h: brain, iv; for concentration at 15 min / concentration at 60 min: plasma, intravenous
human D2R [4] = target: T1, human D2R; conditions: [3H]-(R)-(+)-7-OH-DPAT
Target sequence in this assay (P14416 whole entry): as above

human D2R [5] = target: T1, human D2R; assay: biochemical
Target sequence in this assay (P14416 whole entry): as above

human D3R [6] = target: T2, human D3R; assay: biochemical
human D3R [7] = target: T2, human D3R; assay: Radioligand competition binding, HEK293 membranes, hD3R; conditions: [3H]-(R)-(+)-7-OH-DPAT
human D4R = assay: Radioligand competition binding, HEK293 membranes, hD4R; conditions: [3H]-(R)-(+)-7-OH-DPAT
human DA D4.4 receptors = target: T3, human DA D4.4 receptors (Homo sapiens, UniProt P21917); format: cell-based; conditions: inhibition of forskolin-stimulated cAMP formation
T3 sequence (P21917 1-419): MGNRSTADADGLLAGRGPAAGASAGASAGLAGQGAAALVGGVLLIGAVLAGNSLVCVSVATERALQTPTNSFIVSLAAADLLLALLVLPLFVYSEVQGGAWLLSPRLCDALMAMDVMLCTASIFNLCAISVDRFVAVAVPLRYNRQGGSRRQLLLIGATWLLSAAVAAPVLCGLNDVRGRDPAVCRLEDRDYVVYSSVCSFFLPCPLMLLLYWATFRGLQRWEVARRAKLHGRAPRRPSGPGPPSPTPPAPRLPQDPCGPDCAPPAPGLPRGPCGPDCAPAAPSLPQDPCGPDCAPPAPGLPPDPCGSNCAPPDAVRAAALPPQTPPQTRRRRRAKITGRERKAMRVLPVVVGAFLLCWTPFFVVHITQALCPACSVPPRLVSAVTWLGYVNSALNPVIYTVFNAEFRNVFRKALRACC

human D2R [8] = target: T1, human D2R; format: cell-based
Target sequence in this assay (P14416 whole entry): as the sequence (P14416 whole entry) above
Target sequence in this assay (P63096 2-354 partner limits assumed): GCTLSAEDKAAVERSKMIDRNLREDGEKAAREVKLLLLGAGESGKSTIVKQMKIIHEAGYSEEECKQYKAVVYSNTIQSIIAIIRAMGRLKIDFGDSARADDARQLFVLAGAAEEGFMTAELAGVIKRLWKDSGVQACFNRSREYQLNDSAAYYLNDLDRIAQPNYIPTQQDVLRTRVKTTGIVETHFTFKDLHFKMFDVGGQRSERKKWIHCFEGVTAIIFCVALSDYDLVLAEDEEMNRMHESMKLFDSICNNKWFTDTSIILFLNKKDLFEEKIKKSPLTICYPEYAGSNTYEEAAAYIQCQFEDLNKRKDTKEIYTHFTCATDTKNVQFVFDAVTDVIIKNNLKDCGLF

[9] = Mouse microsomal stability assay; format: in vitro ADME; conditions: mouse liver microsomes + NADPH, 1 µM, 30 min
[10] = test system: Western diet-fed wild-type C57BL/6J mice; assay: Oral glucose tolerance testing in diet-induced obesity model; format: in vivo; conditions: for fasting blood glucose: 6-h fast
[11] = test system: Western diet-fed wild-type C57BL/6J mice; assay: Insulin tolerance testing in diet-induced obesity model; format: in vivo; conditions: 10 mg/kg i.p. daily, 12 weeks
[12] = test system: Western diet-fed wild-type C57BL/6J mice; assay: Body weight in diet-induced obesity model; format: in vivo; conditions: 10 mg/kg i.p. daily, at 12 weeks
Sprague-Dawley rats = assay: Intracerebroventricular L-DOPA infusion, plasma glucose and insulin; format: in vivo; conditions: 10 mM i.c.v. infusion, 5 µL/h, 3.5 h
[13] = 10 mg/kg i.v., 60 min versus 15 min

T2 sequence (P35462 whole entry): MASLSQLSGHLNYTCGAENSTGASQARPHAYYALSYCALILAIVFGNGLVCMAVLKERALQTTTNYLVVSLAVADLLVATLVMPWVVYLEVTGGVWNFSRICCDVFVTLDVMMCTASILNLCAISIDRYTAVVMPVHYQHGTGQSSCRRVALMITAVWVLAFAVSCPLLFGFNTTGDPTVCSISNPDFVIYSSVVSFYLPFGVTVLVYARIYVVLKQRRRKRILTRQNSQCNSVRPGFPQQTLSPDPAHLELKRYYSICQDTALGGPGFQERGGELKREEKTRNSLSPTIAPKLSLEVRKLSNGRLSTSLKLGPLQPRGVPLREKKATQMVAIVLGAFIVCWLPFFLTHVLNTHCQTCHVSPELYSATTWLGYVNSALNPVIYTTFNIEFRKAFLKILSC

| SMILES | decrease in GSIS potency versus unmodified parent (INS-1E cells) | Emax (human D2R [1]) | EC50 (human D3R [2]) | Emax (human D3R [2]) | Brain Conc. ([3]; 10 mg/kg i.v., 15 min) | Brain Conc. ([3]; 10 mg/kg i.v., 60 min) | Kp at 0.25 h [3] | Kp at 1 h [3] | concentration at 15 min [3] | concentration at 60 min [3] | D3R/D2R ratio of binding affinity (human D2R [4]) | Ki (human D2R [5]) | Ki (human D3R [6]) | other results |
| --- | --- | --- | --- | --- | --- | --- | --- | --- | --- | --- | --- | --- | --- | --- |
| CCC[N+]1(C)CCC[C@@H]2Cc3n[nH]cc3C[C@H]21.[I-] (stereo partly drawn) [AB01–59, (4aR,8aR)-5-Methyl-5-propyl-4,4a,5,6,7,8,8a,9-octahydro-2H-pyrazolo[3,4-g]quinolin-5-ium iodide] | 5.9 fold |  |  |  |  |  |  |  |  |  |  |  |  | reduced efficacy in GSIS versus unmodified parent (decrease) (INS-1E cells): 48.4% |
| CC(C)C[C@H]1C(=O)N2CCC[C@H]2[C@]2(O)O[C@](NC(=O)[C@@H]3C=C4c5cccc6[nH]c(Br)c(c56)C[C@H]4[N+](C)(C)C3)(C(C)C)C(=O)N12.[I-] [AB01–60, (6aR,9R)-5-Bromo-9-(((2R,5S,10aS,10bS)-10b-hydroxy-5-isobutyl-2-isopropyl-3,6-dioxooctahydro-8H-oxazolo[3,2-a]pyrrolo[2,1-c]pyrazin-2-yl)carbamoyl)-7,7-dimethyl-4,6,6a,7,8,9-hexahydroindolo[4,3-fg]quinolin-7-ium iodide] | 57.7 fold | 88% | 38 ± 11 nM | 91% | 1282.3 ± 130.7 pmol/g | 651.9 ± 133.7 pmol/g | 0.3 ± 0.03 | 0.51 ± 0.06 | 4260 ± 381 nM | 1280 ± 71.1 nM | 5.57 | 3.14 ± 0.34 nM | 17.5 ± 4.9 nM | diminished potency in D2R-mediated mitogenesis versus unmodified parent (human D2R [1]): 15.6 fold; diminished potency in D3R-mediated mitogenesis versus unmodified parent (human D3R [2]): 11.2 fold; plasma levels greater compared to bromocriptine ([3]; 10 mg/kg i.v., 60 min, listed as BrMeI): 8 fold and ~ 8 fold; diminished D2R binding affinity compared to unmodified parent compound (human D2R [4]): 5.3 fold; diminished D3R binding affinity compared to unmodified parent compound (human D3R [7]): 8.5 fold |
| Cc1cccc(NC(=O)C[N+]2(C)CCC(c3ccccc3)CC2)c1.[I-] (stereo not shown) [AB01–102, 1-Methyl-1-(2-oxo-2-(m-tolylamino)ethyl)-4-phenylpiperidin-1-ium iodide] |  |  |  |  |  |  |  |  |  |  |  |  |  | loss of D4R binding affinity compared to unmodified parent (human D4R): 61.7 fold; diminished potency in D4R cAMP assay compared to unmodified parent (human DA D4.4 receptors): 731.9 fold; functional behaviour in D4R cAMP assay (human DA D4.4 receptors; relative to (−)-quinpirole): partial agonists |
| CC(C)C[C@H]1C(=O)N2CCC[C@H]2[C@]2(O)O[C@](NC(=O)[C@@H]3C=C4c5cccc6[nH]c(Br)c(c56)C[C@H]4N(C)C3)(C(C)C)C(=O)N12 [Bromocriptine, bromocriptine] |  | 99% | 3.4 ± 1.1 nM |  | 995.2 ± 188.0 pmol/g | 71.1 ± 2.3 pmol/g | 0.74 ± 0.11 | 0.45 ± 0.05 | 1340 ± 52.2 nM | 159 ± 15 nM | 3.46 | 0.59 ± 0.17 nM | 2.05 ± 0.56 nM | less efficacy than DA in Gαi1 recruitment to D2R (human D2R [8]): 47%; % drug remaining [9]: entirely metabolized; % drug remaining ([9]; listed as bromocriptine): complete disappearance; decrease in brain level by 60 min post-administration [3, 13]: 92.9%; decrease in plasma level by 60 min post-administration [3, 13]: 88.2%; glucose tolerance (OGTT) versus vehicle ([10]; 10 mg/kg i.p. daily, 12 weeks): significant improvements in glucose tolerance; also recorded: improvement in glucose tolerance; fasting blood glucose ([10]; 10 mg/kg i.p. daily, 12 weeks): significantly lower fasting blood glucose; fasting blood glucose ([10]; 10 mg/kg i.p. daily, 12 weeks, listed as bromocriptine): significantly lower fasting glucose; glucose tolerance (OGTT) versus i.c.v. vehicle ([10]; i.c.v. daily, 8 weeks (10 mg/kg)): did not significantly modify glucose tolerance; also recorded: no significant effect on glucose tolerance; glucose tolerance ([10]; systemic administration, 8 weeks, data not shown): sufficient to improve glucose tolerance; insulin sensitivity / blood glucose during ITT versus vehicle ([11]; 1.5 U/kg insulin): significant improvements in insulin sensitivity; plasma insulin during ITT ([11]; initial 15 min of ITT): significantly enhanced plasma insulin levels; body weight versus vehicle [12]: neither systemic bromocriptine nor BrMeI treatments had significant effects on weight; also recorded: no significant effect |
| N[C@@H](Cc1ccc(O)c(O)c1)C(=O)O [L-DOPA] |  |  |  |  |  |  |  |  |  |  |  |  |  | plasma glucose versus saline vehicle (Sprague-Dawley rats): did not significantly impact; plasma insulin versus saline vehicle (Sprague-Dawley rats): did not significantly impact |
| CN[C@@H]1Cc2cccc3[nH]c(=O)n(c23)C1 [Sumanirole, sumanirole] |  | 110% | 224 ± 24 nM | 180% |  |  |  |  |  |  |  |  |  |  |
